“Also recorded” adds a separate entry of the source.
Key:
Assay type in all cases: in vitro ADME
[1] = target: T1, human MATE1 (Homo sapiens, UniProt Q96FL8); assay: Uptake transporter substrate assay; conditions: MATE1 UPT; for Maximum fold accumulation over control: maximum seen at 1 µM and 2 min, n = 3
T1 sequence (Q96FL8 1-570): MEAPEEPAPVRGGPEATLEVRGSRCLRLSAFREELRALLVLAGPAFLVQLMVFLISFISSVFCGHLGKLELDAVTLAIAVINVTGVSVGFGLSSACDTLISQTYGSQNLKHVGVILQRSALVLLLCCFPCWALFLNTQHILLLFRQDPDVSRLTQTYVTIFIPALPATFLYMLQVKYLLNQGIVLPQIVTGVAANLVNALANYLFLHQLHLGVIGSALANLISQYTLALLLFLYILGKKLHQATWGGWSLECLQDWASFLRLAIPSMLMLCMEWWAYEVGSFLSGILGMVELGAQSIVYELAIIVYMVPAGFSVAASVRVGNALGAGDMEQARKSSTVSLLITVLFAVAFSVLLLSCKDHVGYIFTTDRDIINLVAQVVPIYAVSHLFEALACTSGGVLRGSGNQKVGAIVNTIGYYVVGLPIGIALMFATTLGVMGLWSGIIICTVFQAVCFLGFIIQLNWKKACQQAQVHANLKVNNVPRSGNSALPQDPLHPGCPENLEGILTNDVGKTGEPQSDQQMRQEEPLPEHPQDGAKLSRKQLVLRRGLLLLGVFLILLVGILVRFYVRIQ

[2] = target: T2, human OATP1B1 (Homo sapiens, UniProt Q9Y6L6); assay: Uptake transporter substrate assay; conditions: OATP1B1 UPT; for Maximum fold accumulation over control: maximum seen at 2.5 µM and 20 min, n = 3
T2 sequence (Q9Y6L6 1-691): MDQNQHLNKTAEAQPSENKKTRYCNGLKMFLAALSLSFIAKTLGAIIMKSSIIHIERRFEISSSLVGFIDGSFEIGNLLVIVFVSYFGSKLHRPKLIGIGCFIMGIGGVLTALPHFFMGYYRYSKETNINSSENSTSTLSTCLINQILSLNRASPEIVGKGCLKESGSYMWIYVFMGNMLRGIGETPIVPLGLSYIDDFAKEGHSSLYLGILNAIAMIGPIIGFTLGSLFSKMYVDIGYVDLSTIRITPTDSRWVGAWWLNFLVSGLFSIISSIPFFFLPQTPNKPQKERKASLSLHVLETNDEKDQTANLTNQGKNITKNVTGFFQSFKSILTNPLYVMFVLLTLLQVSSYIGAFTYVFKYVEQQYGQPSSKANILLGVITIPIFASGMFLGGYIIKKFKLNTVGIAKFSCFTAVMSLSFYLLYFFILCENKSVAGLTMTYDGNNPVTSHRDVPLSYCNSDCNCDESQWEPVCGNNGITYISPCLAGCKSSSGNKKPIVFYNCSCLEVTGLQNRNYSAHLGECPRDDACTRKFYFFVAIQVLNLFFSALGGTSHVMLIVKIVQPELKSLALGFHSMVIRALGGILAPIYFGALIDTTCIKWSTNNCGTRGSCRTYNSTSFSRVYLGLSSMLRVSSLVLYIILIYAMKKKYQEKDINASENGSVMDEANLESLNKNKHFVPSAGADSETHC

[3] = target: T3, human OAT3 (Homo sapiens, UniProt Q8TCC7); assay: Uptake transporter substrate assay; conditions: OAT3 UPT; for Maximum fold accumulation over control: maximum seen at 5 µM and 20 min, n = 3
T3 sequence (Q8TCC7 1-542): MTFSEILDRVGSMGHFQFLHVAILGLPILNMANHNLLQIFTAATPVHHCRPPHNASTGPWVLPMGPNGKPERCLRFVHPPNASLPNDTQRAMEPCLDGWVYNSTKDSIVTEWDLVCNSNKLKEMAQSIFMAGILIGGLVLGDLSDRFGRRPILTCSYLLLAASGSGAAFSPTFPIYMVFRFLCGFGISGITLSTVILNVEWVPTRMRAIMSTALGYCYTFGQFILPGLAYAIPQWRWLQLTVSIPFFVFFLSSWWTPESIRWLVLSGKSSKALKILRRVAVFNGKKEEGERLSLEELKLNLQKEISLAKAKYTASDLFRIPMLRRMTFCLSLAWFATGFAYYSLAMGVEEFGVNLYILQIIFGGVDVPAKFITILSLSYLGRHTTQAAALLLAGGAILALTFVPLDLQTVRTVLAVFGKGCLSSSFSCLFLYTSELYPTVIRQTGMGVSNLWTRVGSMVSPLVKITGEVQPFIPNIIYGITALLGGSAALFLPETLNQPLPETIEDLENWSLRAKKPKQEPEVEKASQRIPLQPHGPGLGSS

[4] = target: human MDR1 (Homo sapiens, UniProt P08183); assay: Transporter substrate assay, MDCKII‐MDR1 monolayer bidirectional transport; conditions: MDR1 ML; for Maximum net ER: maximum seen at 1 and 5 µM, n = 3
[5] = target: T4, human OAT1 (Homo sapiens, UniProt Q4U2R8); assay: Transporter inhibition, uptake assay
T4 sequence (Q4U2R8 1-563): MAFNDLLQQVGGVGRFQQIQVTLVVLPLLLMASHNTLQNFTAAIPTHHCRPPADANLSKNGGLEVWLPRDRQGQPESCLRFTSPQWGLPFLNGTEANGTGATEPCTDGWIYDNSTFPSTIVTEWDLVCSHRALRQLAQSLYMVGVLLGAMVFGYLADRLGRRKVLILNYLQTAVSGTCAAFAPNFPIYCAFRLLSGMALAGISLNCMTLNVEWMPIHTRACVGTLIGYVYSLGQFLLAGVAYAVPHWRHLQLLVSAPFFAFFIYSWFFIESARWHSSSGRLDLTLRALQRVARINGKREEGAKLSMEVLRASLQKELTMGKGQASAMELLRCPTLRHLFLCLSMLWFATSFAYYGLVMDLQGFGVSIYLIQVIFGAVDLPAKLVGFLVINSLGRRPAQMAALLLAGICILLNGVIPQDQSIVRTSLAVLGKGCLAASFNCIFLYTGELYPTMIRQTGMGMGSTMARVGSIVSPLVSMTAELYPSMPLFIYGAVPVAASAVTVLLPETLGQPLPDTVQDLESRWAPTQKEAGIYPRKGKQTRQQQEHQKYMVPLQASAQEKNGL

[6] = target: CYP2D6 (Homo sapiens, UniProt P10635); assay: CYP inhibition in pooled human liver microsomes, dextromethorphan probe; conditions: read-out: IC50, No preincubation; CYP2D6, pooled HLMs, n = 3
[7] = listed as 6β‐hydroxy‐21‐desacetyl deflazacort

Sequence of human MDR1 (P08183 whole entry): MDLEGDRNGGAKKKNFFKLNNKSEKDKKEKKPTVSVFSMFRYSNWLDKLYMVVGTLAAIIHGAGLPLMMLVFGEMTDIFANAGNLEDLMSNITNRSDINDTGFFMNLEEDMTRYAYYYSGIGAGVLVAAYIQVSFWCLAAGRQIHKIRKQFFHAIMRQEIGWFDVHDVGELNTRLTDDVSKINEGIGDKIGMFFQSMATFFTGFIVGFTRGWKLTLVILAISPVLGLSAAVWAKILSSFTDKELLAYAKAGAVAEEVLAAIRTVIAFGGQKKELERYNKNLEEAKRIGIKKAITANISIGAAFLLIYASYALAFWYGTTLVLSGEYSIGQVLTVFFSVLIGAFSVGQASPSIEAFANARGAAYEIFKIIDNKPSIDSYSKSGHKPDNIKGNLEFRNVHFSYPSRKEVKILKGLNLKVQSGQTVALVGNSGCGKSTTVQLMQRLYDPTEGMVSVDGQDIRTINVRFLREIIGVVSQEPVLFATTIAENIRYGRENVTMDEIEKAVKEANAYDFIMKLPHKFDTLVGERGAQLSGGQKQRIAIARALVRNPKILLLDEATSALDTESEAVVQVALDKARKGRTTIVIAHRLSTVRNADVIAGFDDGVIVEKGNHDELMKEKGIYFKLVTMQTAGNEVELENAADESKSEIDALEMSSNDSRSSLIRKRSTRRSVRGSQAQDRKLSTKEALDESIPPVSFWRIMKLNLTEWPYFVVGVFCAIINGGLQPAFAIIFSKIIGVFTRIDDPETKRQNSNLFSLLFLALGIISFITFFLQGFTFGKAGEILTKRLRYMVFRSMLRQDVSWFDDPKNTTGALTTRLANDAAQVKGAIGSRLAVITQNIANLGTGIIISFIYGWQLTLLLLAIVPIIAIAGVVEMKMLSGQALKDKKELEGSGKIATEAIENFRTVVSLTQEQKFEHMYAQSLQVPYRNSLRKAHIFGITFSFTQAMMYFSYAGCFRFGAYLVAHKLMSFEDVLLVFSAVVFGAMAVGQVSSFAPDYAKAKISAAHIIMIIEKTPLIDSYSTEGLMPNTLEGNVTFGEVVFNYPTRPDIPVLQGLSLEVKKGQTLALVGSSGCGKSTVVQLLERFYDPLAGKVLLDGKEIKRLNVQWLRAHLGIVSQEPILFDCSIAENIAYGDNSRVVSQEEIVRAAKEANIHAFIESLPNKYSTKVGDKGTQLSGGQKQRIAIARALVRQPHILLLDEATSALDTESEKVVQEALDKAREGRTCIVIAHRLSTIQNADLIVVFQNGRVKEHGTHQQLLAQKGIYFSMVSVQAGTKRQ
Sequence of CYP2D6 (P10635 whole entry): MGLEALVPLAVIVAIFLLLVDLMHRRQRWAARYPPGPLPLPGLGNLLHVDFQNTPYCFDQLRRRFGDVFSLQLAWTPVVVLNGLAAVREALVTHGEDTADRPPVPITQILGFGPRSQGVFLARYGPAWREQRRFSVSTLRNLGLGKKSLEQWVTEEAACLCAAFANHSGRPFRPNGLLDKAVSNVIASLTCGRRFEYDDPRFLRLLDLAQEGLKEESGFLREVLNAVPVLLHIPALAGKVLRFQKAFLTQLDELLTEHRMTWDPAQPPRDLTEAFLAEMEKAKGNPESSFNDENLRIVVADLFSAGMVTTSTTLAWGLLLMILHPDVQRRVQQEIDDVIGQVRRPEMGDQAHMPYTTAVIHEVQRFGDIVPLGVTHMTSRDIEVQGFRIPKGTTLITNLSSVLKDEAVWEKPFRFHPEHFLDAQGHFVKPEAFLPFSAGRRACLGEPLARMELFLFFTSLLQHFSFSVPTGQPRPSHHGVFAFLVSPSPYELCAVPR

Molecule | Maximum fold accumulation over control [1] | Maximum fold accumulation over control [2] | Substrate potential [3] | Fold accumulation over control, in the presence of OAT3 inhibitor ([3]; with inhibitor probenecid) | Maximum fold accumulation over control [3] | Maximum net ER [4] | inhibitory interaction with transporter ([5]; OAT1, up to 50 µM) | Maximum inhibition at 50 µM ([5]; OAT1 UPT, n = 3) | Substrate potential [1] | Substrate potential [1, 7] | Substrate potential [2] | Substrate potential [2, 7] | Fold accumulation over control, without inhibitor (inhibitor experiment) ([3]; before inhibitor‐reduced accumulation) | Substrate potential [3, 7] | Substrate potential [4] | Substrate potential [4, 7] | IC50 [6]
[2’-^14C]-6β-hydroxy-21-desacetyl-deflazacort [^14C‐6β‐OH‐21‐desDFZ] | < 2 fold | < 2 fold | is an OAT3 substrate in vitro | 1.08 fold | 2.71 fold | 0.59 | – | – | – | – | – | – | – | – | – | – | –
CC1=N[C@]2(C(=O)CO)[C@@H](C[C@H]3[C@@H]4C[C@@H](O)C5=CC(=O)C=C[C@]5(C)[C@H]4[C@@H](O)C[C@@]32C)O1 [6β‐OH‐21‐desDFZ, 6β‐Hydroxy‐21‐desacetyl deflazacort] | 1.18 at 1 µM and 2 min fold | 1.02 at 2.5 µM and 20 min fold | appeared to be an in vitro substrate; also recorded: in vitro substrate for human OAT3 | – | 2.71 fold | 0.59 at 1 and 5 µM | did not show interaction; also recorded: no inhibitory interaction | <20 % of control | not a substrate | No | not a substrate | No | 1.75 fold | Yes | not a substrate | No | > 50 µM

Source: publication PMC7982320 (Pharmacology Research & Perspectives, 2021)
